molecular target: Complex I; assay: Assay A: Determination of Complex I mediated ROS-inhibition (CI); assay type: biochemical; conditions: read-out: CI IC50; ROS generation by Complex I purified from bovine heart, Amplex Red/horse radish peroxidase readout, 8 point concentration-response

| Compound | IC50 [µM] |
| --- | --- |
| CC(Nc1ccc2c(c1)/C(=C1\COCCN1)C(=O)N2C(C)C)c1cnccn1 (stereo not drawn) [Compound 57] | 0.073 |
| O=C1/C(=C2/CCOCCN2)c2cc(NC3CCOC3)ccc2N1C1CCOCC1 (stereo not drawn) [Compound 140] | 0.084 |
| CC(C)Nc1ccc2c(c1)/C(=C1\COCCN1)C(=O)N2C1CCOC1 (stereo not drawn) [Compound 163] | 0.172 |
| Nc1ccc2c(c1)/C(=C1\CCCN1)C(=O)N2C1CCOCC1 [Compound 83] | 0.011 |
| CC(C)N1C(=O)C(=C2CCOCC2)c2cc(NC3CCOC3)ccc21 (stereo not drawn) [Compound 160] | 0.829 |
| CC(C)N1C(=O)/C(=C2/CCCCN2)c2cc(N(C3CCC3)C3CCC3)ccc21 [Compound 113] | 0.106 |
| O=C1/C(=C2/COCCN2)c2cc(NC3CCC3)ccc2N1C1CCOC1 (stereo not drawn) [Compound 14] | 0.101 |
| CC1COC/C(=C2/C(=O)N(C3CCOCC3)c3ccc(N4C(C)CCC4C)cc32)N1 (stereo not drawn) [Compound 93] | 0.024 |
| O=C1/C(=C2/COCCN2)c2cc(NCC3CC3)ccc2N1C1CCOCC1 [Compound 103] | 0.076 |
| CC(Nc1ccc2c(c1)/C(=C1\COCCN1)C(=O)N2C1CCOCC1)c1cnccn1 (stereo not drawn) [Compound 146] | 0.066 |
| COC1COCCC1Nc1ccc2c(c1)/C(=C1\COCCN1)C(=O)N2C1CCOCC1 (stereo not drawn) [Compound 149] | 0.161 |
| CC1CCC(C)N1c1ccc2c(c1)/C(=C1\COCCN1)C(=O)N2C1CCOC1 (stereo not drawn) [Compound 162] | 0.464 |
| CC(Nc1ccc2c(c1)/C(=C1\COCCN1)C(=O)N2C1CCOCC1)c1cccnc1 (stereo not drawn) [Compound 100] | 0.034 |
| CCC(C)Nc1ccc2c(c1)/C(=C1\COCCN1)C(=O)N2C(C)C (stereo not drawn) [Compound 54] | 0.203 |
| CN1CCN/C(=C2\C(=O)N(C)c3ccc(N4CCCC4)cc32)CC1 [Compound 64] | 0.286 |
| CC1CCCC1Nc1ccc2c(c1)/C(=C1\COCCN1)C(=O)N2C(C)C (stereo not drawn) [Compound 124] | 0.259 |
| CN1C(=O)/C(=C2/CCOCCN2)c2cc(N3CCCC3)ccc21 [Compound 107] | 0.299 |
| CN(C)c1ccc2c(c1)/C(=C1\CCOCCN1)C(=O)N2C [Compound 41] | 0.052 |
| O=C1/C(=C2/COCCN2)c2cc(NC3COC3)ccc2N1C1CCOCC1 [Compound 175] | 0.097 |
| CC(C)Nc1ccc2c(c1)/C(=C1\COCCN1)C(=O)N2C1CCOCC1 [Compound 3] | 0.077 |
| CC(C)N1CCN/C(=C2\C(=O)N(C)c3ccc(N4CCCC4)cc32)C1 [Compound 23] | 0.137 |
| CC(C)Nc1ccc2c(c1)/C(=C1\CN(C3COC3)CCN1)C(=O)N2C1CCOCC1 [Compound 5] | 0.081 |

| Compound | IC50 [µM] |
| --- | --- |
| CC(C)Nc1ccc2c(c1)/C(=C1\CC3(CN1)COC3)C(=O)N2C1CCOCC1 [Compound 165] | 0.181 |
| CC(C)N1C(=O)/C(=C2/CCOCCN2)c2cc(N3CCCC3)ccc21 [Compound 129] | 0.702 |
| CC1CCC(C)N1c1ccc2c(c1)/C(=C1\CCOCCN1)C(=O)N2C1CCOCC1 (stereo not drawn) [Compound 29] | 0.132 |
| CN1C(=O)/C(=C2/CCNCCN2)c2cc(N3CCCC3)ccc21 [Compound 40] | 0.166 |
| CN1CCC/C1=C1/C(=O)N(C2CCOCC2)c2ccc(NC3CCOC3)cc21 (stereo not drawn) [Compound 49] | 0.282 |
| CC(C)Nc1ccc2c(c1)/C(=C1\COCCN1)C(=O)N2C [Compound 63] | 0.022 |
| CC(C)Nc1ccc2c(c1)/C(=C1\COCCN1)C(=O)N2[C@H]1CCN(C2COC2)C1 [Compound 69] | 0.055 |
| CC(C)N1C(=O)/C(=C2/CCCN2C)c2cc(NC3CCC3)ccc21 [Compound 161] | 0.957 |
| CC(C)N1C(=O)/C(=C2/COCCN2)c2cc(NC3CCOCC3F)ccc21 (stereo not drawn) [Compound 73] | 0.066 |
| COCC(C)Nc1ccc2c(c1)/C(=C1\COCCN1)C(=O)N2C1CCOC1 (stereo not drawn) [Compound 52] | 0.061 |
| CC(C)N1C(=O)/C(=C2/CCOCCN2)c2cc(NC3CCC3)ccc21 [Compound 22] | 0.087 |
| CC(Nc1ccc2c(c1)/C(=C1\COCCN1)C(=O)N2C1CCOCC1)c1cncnc1 (stereo not drawn) [Compound 147] | 0.069 |
| CC(Nc1ccc2c(c1)/C(=C1\COCCN1)C(=O)N2C1CCOCC1)c1ccnn1C (stereo not drawn) [Compound 79] | 0.02 |
| CC(Nc1ccc2c(c1)/C(=C1\COCCN1)C(=O)N2C(C)C)C1CCC1 (stereo not drawn) [Compound 37] | 0.405 |
| O=C1/C(=C2/COCCN2)c2cc(NC3CCC3)ccc2N1C1COC1 [Compound 51] | 0.135 |
| CC(=O)N1CCN/C(=C2\C(=O)N(C(C)C)c3ccc(NC(C)C)cc32)C1 [Compound 159] | 0.12 |
| CN(C)c1ccc2c(c1)/C(=C1/NCCN1c1ccccc1)C(=O)N2C [Compound 106] | 0.327 |
| CCC(CC)Nc1ccc2c(c1)/C(=C1\COCCN1)C(=O)N2C(C)C [Compound 171] | 0.206 |
| CC(C)Nc1ccc2c(c1)C(=C1CCOCC1)C(=O)N2C(C)C [Compound 47] | 0.153 |
| CC(C)N1C(=O)C(=C2CCOCC2)c2cc(N3CCCC3)ccc21 [Compound 7] | 0.35 |
| CC1CCCC1Nc1ccc2c(c1)/C(=C1\COCCN1)C(=O)N2C1CCOCC1 (stereo not drawn) [Compound 102] | 0.109 |
| CC(C)N1C(=O)/C(=C2/CCCCN2)c2cc(N3CCOCC3)ccc21 [Compound 158] | 0.243 |

| Compound | IC50 [µM] |
| --- | --- |
| COCC(C)Nc1ccc2c(c1)/C(=C1\COCCN1)C(=O)N2C1COC1 (stereo not drawn) [Compound 137] | 0.138 |
| CN1C(=O)/C(=C2/CCN(C(=O)OCc3ccccc3)CCN2)c2cc(N3CCCC3)ccc21 [Compound 152] | 0.477 |
| CN1CCC/C1=C1/C(=O)N(C2CCOCC2)c2ccc(NC3CCC3)cc21 [Compound 9] | 0.398 |
| COCC(C)N1C(=O)/C(=C2/COCCN2)c2cc(N3CCC(O)C3)ccc21 (stereo not drawn) [Compound 119] | 0.422 |
| O=C1/C(=C2/COCCN2)c2cc(NCC3CCOCC3)ccc2N1C1CCOCC1 [Compound 81] | 0.13 |
| CCC(CC)Nc1ccc2c(c1)/C(=C1\COCCN1)C(=O)N2C1CCOCC1 [Compound 76] | 0.043 |
| CC(Nc1ccc2c(c1)/C(=C1\COCCN1)C(=O)N2C(C)C)c1nccs1 (stereo not drawn) [Compound 144] | 0.049 |
| CN(C)c1ccc2c(c1)/C(=C1\CCCN1)C(=O)N2C [Compound 1] | 0.06 |
| CC(Nc1ccc2c(c1)/C(=C1\COCCN1)C(=O)N2C1CCOCC1)c1ccccn1 (stereo not drawn) [Compound 77] | 0.022 |
| CC(C)N1C(=O)/C(=C2/COCCN2)c2cc(NC3CCC(F)(F)CC3)ccc21 [Compound 72] | 0.14 |
| CC(C)N1C(=O)C(=C2CCOCC2)c2cc(N)ccc21 [Compound 157] | 0.691 |
| CC(C)Nc1ccc2c(c1)/C(=C1\CN(C(C)C)CCN1)C(=O)N2C1CCOCC1 [Compound 46] | 0.086 |
| O=C1/C(=C2/COCCCN2)c2cc(NC3CCOC3)ccc2N1C1CCOCC1 (stereo not drawn) [Compound 141] | 0.104 |
| CC(Nc1ccc2c(c1)/C(=C1\COCCN1)C(=O)N2C1CCOCC1)C1CC1 (stereo not drawn) [Compound 20] | 0.073 |
| O=C1/C(=C2/COCCN2)c2cc(NC3CCOCC3)ccc2N1C1CCOCC1 [Compound 18] | 0.011 |
| CC(Nc1ccc2c(c1)/C(=C1\COCCN1)C(=O)N2C(C)C)C1CC1 (stereo not drawn) [Compound 97] | 0.344 |
| CC1OCCC1Nc1ccc2c(c1)/C(=C1\COCCN1)C(=O)N2C1CCOCC1 (stereo not drawn) [Compound 174] | 0.039 |
| CN1C(=O)/C(=C2/CCN(C3COC3)CCN2)c2cc(N3CCCC3)ccc21 [Compound 45] | 0.259 |
| CC(Nc1ccc2c(c1)/C(=C1\COCCN1)C(=O)N2C(C)C)c1cncnc1 (stereo not drawn) [Compound 126] | 0.085 |
| CC(C)C(C)Nc1ccc2c(c1)/C(=C1\COCCN1)C(=O)N2C1COC1 (stereo not drawn) [Compound 66] | 0.169 |
| CC(C)C(C)Nc1ccc2c(c1)/C(=C1\COCCN1)C(=O)N2C(C)C (stereo not drawn) [Compound 95] | 0.151 |
| CN(C)c1ccc2c(c1)/C(=C1\COCCN1)C(=O)N2C [Compound 2] | 0.08 |

| Compound | IC50 [µM] |
| --- | --- |
| CC(C)N1C(=O)/C(=C2/COCCN2)c2cc(N3CCOCC3)ccc21 [Compound 166] | 0.075 |
| CC(C)Nc1ccc2c(c1)/C(=C1\CN(C3COC3)CCN1)C(=O)N2C(C)C [Compound 114] | 0.058 |
| Nc1ccc2c(c1)/C(=C1\COCCN1)C(=O)N2C1CCOCC1 [Compound 35] | 0.083 |
| CCC(CC)Nc1ccc2c(c1)/C(=C1\COCCN1)C(=O)N2C1COC1 [Compound 136] | 0.213 |
| CC(C)N1CCC(Nc2ccc3c(c2)/C(=C2\COCCN2)C(=O)N3C(C)C)CC1 [Compound 96] | 0.063 |
| CC(Nc1ccc2c(c1)/C(=C1\COCCN1)C(=O)N2C1CCOCC1)C1CCC1 (stereo not drawn) [Compound 148] | 0.039 |
| CC(C)Nc1ccc2c(c1)/C(=C1\CCN(C(C)C)CCN1)C(=O)N2C1CCOCC1 [Compound 164] | 0.172 |
| O=C1/C(=C2/COCCN2)c2cc(NC3CCOCC3)ccc2N1C1CCOC1 (stereo not drawn) [Compound 32] | 0.031 |
| CCC(C)Nc1ccc2c(c1)/C(=C1\COCCN1)C(=O)N2C1CCOCC1 (stereo not drawn) [Compound 59] | 0.122 |
| CC1CCC(C)N1c1ccc2c(c1)/C(=C1\COCCCN1)C(=O)N2C1CCOCC1 (stereo not drawn) [Compound 142] | 0.116 |
| CC(Nc1ccc2c(c1)/C(=C1\COCCN1)C(=O)N2C(C)C)c1cccnc1 (stereo not drawn) [Compound 15] | 0.096 |
| O=C1/C(=C2/COCCN2)c2cc(N3CCOCC3)ccc2N1C1CCOCC1 [Compound 4] | 0.242 |
| COCC(C)Nc1ccc2c(c1)/C(=C1\COCCN1)C(=O)N2C1CCOCC1 (stereo not drawn) [Compound 99] | 0.451 |
| CN1C(=O)/C(=C2/CCN(C3CCOC3)CCN2)c2cc(N3CCCC3)ccc21 (stereo not drawn) [Compound 155] | 0.264 |
| CC(C)Nc1ccc2c(c1)/C(=C1\COCCN1)C(=O)N2C(C)(C)C [Compound 90] | 0.428 |
| CC(C)N1CCN/C(=C2\C(=O)N(C)c3ccc(N4CCCC4)cc32)CC1 [Compound 110] | 0.264 |
| CC(C)N1C(=O)/C(=C2/COCCN2)c2cc(NC3COC3)ccc21 [Compound 98] | 0.187 |
| CC(C)Nc1ccc2c(c1)C(=C1CCOCC1)C(=O)N2C1CCOCC1 [Compound 6] | 0.533 |
| CC(C)Nc1ccc2c(c1)/C(=C1\CN(C3CCOCC3)CCN1)C(=O)N2C(C)C [Compound 134] | 0.062 |
| CN(C)c1ccc2c(c1)/C(=C1\CCCN1)C(=O)N2C1CCOCC1 [Compound 42] | 0.042 |
| CC(=O)N1CCC(Nc2ccc3c(c2)/C(=C2\COCCN2)C(=O)N3C(C)C)CC1 [Compound 172] | 0.078 |

Source: patent US11795147B2, “Modulators of complex I” (Boehringer Ingelheim International GmbH, priority 2019, dated 2023)
